Values joined by “and” are separate entries in the source; they are usually repeats but may differ in a detail not shown here. Equal entries are not always repeated. “Also recorded” adds a separate entry of the source.
Legend:
OCI-Ly3 cells = test: Apoptosis, annexin V/SYTOX Blue flow cytometry; format: cell-based, human
Protocol: (§1) Cell proliferation, viability, and apoptosis assays. […]
Annexin V Alexa 488
(ThermoFisher Scientific, Cat# A13201) and SYTOX Blue Dead Cell (ThermoFisher Scientific, Cat# S34857) stains were used to detect apoptosis in DLBCL cells after treatment with 1 µM compounds for 8 days in TMD8 and OCI-Ly1 and for 5 days in OCI-Ly3 cells, then analyzed with flow cytometry. The percentages of cells in early and late apoptosis were combined for quantification. For CellTrace Violet, CellTiter-glo, and Annexin V apoptosis assays, cell were cultured in media with 50% of the usual serum. […]

[1] = tested on: BCL10 and MALT1 mRNA in TMD8 cells; test: BCL10 and MALT1 mRNA expression, qRT-PCR; format: cell-based, human; settings: TMD8, 1 μM
TMD8 cells = test: Apoptosis, annexin V/SYTOX Blue flow cytometry; format: cell-based, human
Protocol: as §1
The percentages of cells in early and late apoptosis were combined for
quantification. For CellTrace Violet, CellTiter-glo, and Annexin V apoptosis assays, cell were
cultured in media with 50% of the usual serum. […]

[2] = tested on: all CYP enzymes tested (CYP1A2, CYP2C9, CYP2C19, CYP2D6, CYP3A4); test: Reversible CYP inhibition, all enzymes tested; format: in vitro ADME; settings: both sexes, human, pooled human liver microsomes; read-out: IC50 against all CYP enzymes tested
Protocol: Pharmacokinetic and cytochrome P450 inhibition studies. Studies were performed with the assistance of Touchstone Biosciences (Plymouth Meeting, Pennsylvania). […]
For reversible CYP […]
inhibition studies, different concentrations of M1i-124 were added to 0.2 mg/ml pooled, mixed-gender human liver microsomes (HLM). Each CYP450 isoform-specific probe substrate (CYP1A2, CYP2C9, CYP2C19, CYP2D6, and CYP3A4) was incubated individually with HLM and M1i-124 or corresponding positive control inhibitor (Phenacetin, Tolbutamaide, S-Mephenytoin, Dextromethorphan, Midazolam, and Testosterone). Samples were analyzed for metabolites of the probe substrates by LC-MS/MS at each of the test compound concentrations. A decrease in the formation of the metabolites compared to vehicle control was used to calculate the […]

Compound: O=S(=O)(NCc1ccc2c(c1)OCO2)c1ccc(Cc2ccc(S(=O)(=O)NCc3ccc4c(c3)OCO4)cc2)cc1 [M1i-124]
- apoptosis of OCI-Ly3 cells (OCI-Ly3 cells; 1 μM, result in words): selectively induced apoptosis
- Percent Apoptotic cells (OCI-Ly3 cells; OCI-Ly3): 91.3% and 82.7% and 75% and 93.6% and 88.1% and 93.3% and 87.8% and 75.8%
- BCL10 mRNA (normalized) ([1]; 48 hrs): 1.102 and 1.661 and 1.831
- BCL10 mRNA (normalized) ([1]; 72 hrs): 2.063 and 2.239 and 2.314
- MALT1 mRNA (normalized) ([1]; 72 hrs): 1.674 and 1.428 and 1.962
- % Apoptotic cells (TMD8 cells; TMD8, 1 μM, 6 days): 84.2% and 72.1% and 76.6% and 77.4% and 72.4% and 73.5%
- Annexin (% positivity) (TMD8 cells; TMD8, individual replicates): 78.2% and 93.8% and 81.35%
- apoptosis of TMD8 cells (TMD8 cells; result in words): induced significant apoptosis; also recorded: selectively induced apoptosis
- IC50 [2]: > 10 µM
